One experiment concerns the target T1, PKC isoenzyme δ (Homo sapiens, UniProt Q05655).
T1 construct: made in house; host or cells: baculovirus-insect cell expression system
In words: Protein kinase C inhibition assay, PKC isoenzyme δ. The experiment is classed as biochemical. Conditions: read-out: IC50 PKC δ. Here is the method: (§1) A protein kinase C (PKC) assay is designed to duplicate the in vivo conditions required for protein kinase C function. Therefore, pH, salt and cofactor concentrations are similar to physiologic levels. Either lysine rich histone H1 (H1) or Myelin basic protein (Mbp) are used in the assay as the phosphorylation acceptor-protein because they are readily available and serve as good substrates for protein kinase C. Enzyme was prepared from baculovirus-insect cell expression systems.
(§2) In the screening assay, phosphatidylserine (PS) and DAG were co-sonicated to form unilamellar and multilamellar vesicles. The concentration of lipids in the assay were suboptimal to maximize the detection potential of the assay for inhibitors or activators. Potential effector compounds were added to the assay in dimethylsulfoxide at four concentrations to give final inhibitor concentrations of 1, 10, 50, and 150 μM, respectively.
(§3) The assay was started with the addition of enzyme and stopped after 10 min by the addition of 25% trichloroacetic acid (TCA) and 1.0 mg/ml bovine serum albumin (BSA). The radioactive histone product was retained and washed on glass fiber filters that allow the unreacted P-ATP to pass through. The amount of phosphorylation was determined by measuring radioactivity with a scintillation counter. Controls were included in every assay to measure background activity in the absence of enzyme, activity in the absence of lipids, and the maximum enzyme activity with saturating levels of the activator lipids.
(§4) Results of the protein kinase C assay are shown in Table 4 in columns labeled α, βII, γ, δ, ε, and .zeta. which represent various PKC isoenzymes. Results are show as IC50, which is the concentration of test compound needed to inhibit 50% of the protein kinase C activity in controls.

Experiment [1] relates to MCF-7 human breast tumor cell line. In words: Human Tumor Cell Growth Inhibition (3H-thymidine incorporation). In kind it is cell-based. Here is the method: MCF-7 a human breast tumor cell line was obtained from the National Cancer Institute, Frederick, Md. Tumor cells were trypsinized with 0.05% trypsin obtained from GIBCO (Grand Island Biological Co. Laboratories, Grand Island, N.Y.), counted with a hemacytometer and seeded at a concentration of 7,500 cells/well in a 96 well microtiter plate and allowed to attach to the surface overnight. To determine a concentration response, test agents were serially diluted an […] added at 2× final concentration to quadruplicate cultures to bring the total volume of each well to […]. The microtiter plate was then incubated at 37° C., 5% CO2 for 24 hrs with ^3 H-thymidine added at a concentration of 0.5 mCi/well in […] of 0.05% trypsin (GIBCO) was added to each well. Cells were checked microscopically to determine detachment from surfaces, and plates were harvested with a cell harvester (PHD, Cambridge Technology, Inc.). Filter paper corresponding to wells were placed in scintillation vials and counted to determine the amount ^3 H-thymidine incorporated by the cells. Counts per minute (CPM) of quadruplicate cultures were averaged and a percent of control calculated for each test agent concentration by the following formula: [formula]
The IC50 or concentration necessary to inhibit the proliferation of cells by 50% compared to control, of each test agent was determined by plotting % control vs log concentration for each dilution and then linear forecasting the 50% control value onto the X axis on a Quattro Pro computer program. Only regression values with a correlation coefficient greater then 0.9 were considered acceptable.
A general note: Uptake of a labelled nucleoside into DNA is a usual measure of proliferation.

For a further experiment, the target named is T2, PKC isoenzyme α (Homo sapiens, UniProt P17252).
T2 construct: made in house; host or cells: baculovirus-insect cell expression system
In words: Protein kinase C inhibition assay, PKC isoenzyme α. The conditions noted are these: read-out: IC50 PKC α. The experiment is classed as biochemical. How it is done: as §1, §2, §3, §4

In another experiment the target is T3, PKC isoenzyme βII (Homo sapiens, UniProt P05771).
T3 construct: made in house; host or cells: baculovirus-insect cell expression system
In words: Protein kinase C inhibition assay, PKC isoenzyme βII. In kind it is biochemical. Conditions: read-out: IC50 PKC βII. Here is the method: as §1, §2, §3, §4

Experiment [2] relates to normal human epidermal keratinocyte (NHEK) cells. In words: Human Keratinocyte Inhibition (3H TdR Assay). In kind it is cell-based. Conditions: 24 h incubation, 3H-thymidine. How it is done: Proliferating normal human epidermal keratinocyte (NHEK) cells were obtained in the second passage and grown in keratinocyte growth medium, KGM (Clonetics, Inc.) at 37° C., 5% CO2. The cells were trypsinized (0.25%), centrifuged, counted with a hemocytometer, and seeded at a concentration of 5000 cells in 100 μl well in a 96-well microtiter plate.
After the cells were allowed to attach to the microtiter plate overnight, test agents were titrated to determine the dose response. This was done by adding each test agent dilution in quadruplicate to the plate at 2× final concentration in 100 μl to bring the total volume of each well to 200 μl. Culture media with no test agent added was used as a normal control. Duplicate sets of plates were established.
After twenty-four hours of incubation with test compounds 37° C. and 5% CO2, […] of 0.01 mCi/ml tritiated thymidine (New England Nuclear) was added to each well and allowed to incubate for another 4 hours under the same conditions.
Supernatant was aspirated and discarded and […] of 0.05% trypsin (Gibco) was added to each cell. Cells were checked microscopically to determine detachment from surfaces and then harvested onto glass filters. The filters were then placed in vials to which scintillant was added and counted for one minute each in a scintillation counter.
Determine mean cpm of wells containing test agent (n=4) or KGM control (n=16). Calculate % of control by the formula: [formula]
The IC50, or connection necessary to inhibit 50% of control, of each test agent was determined by plotting % control vs log concentration for each dilution and then linear forecasting the 50% control value onto the X axis on a Quatro Pro computer program. Only regression values with a correlation coefficient greater than 0.9 were considered acceptable.

Another experiment addresses T4, PKC isoenzyme ε (Homo sapiens, UniProt Q02156).
T4 construct: made in house; host or cells: baculovirus-insect cell expression system
T4 sequence (Q02156 1-737): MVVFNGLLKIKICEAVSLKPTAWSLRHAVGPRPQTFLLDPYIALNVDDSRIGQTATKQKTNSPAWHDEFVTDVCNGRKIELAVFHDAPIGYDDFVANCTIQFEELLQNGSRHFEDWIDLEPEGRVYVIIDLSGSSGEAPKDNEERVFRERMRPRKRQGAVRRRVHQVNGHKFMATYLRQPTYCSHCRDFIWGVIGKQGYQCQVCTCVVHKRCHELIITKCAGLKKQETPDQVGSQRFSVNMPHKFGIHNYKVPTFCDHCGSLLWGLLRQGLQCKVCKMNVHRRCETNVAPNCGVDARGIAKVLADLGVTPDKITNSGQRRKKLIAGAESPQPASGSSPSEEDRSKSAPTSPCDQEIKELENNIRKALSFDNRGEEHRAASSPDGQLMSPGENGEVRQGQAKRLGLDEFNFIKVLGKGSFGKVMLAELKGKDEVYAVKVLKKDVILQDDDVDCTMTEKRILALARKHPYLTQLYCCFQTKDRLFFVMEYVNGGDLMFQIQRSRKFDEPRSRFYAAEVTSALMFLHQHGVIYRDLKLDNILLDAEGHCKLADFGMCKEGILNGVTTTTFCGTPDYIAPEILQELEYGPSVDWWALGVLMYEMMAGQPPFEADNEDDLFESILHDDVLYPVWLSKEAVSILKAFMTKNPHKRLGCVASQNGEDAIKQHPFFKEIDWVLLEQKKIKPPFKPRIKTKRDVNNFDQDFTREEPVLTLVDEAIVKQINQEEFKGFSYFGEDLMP
In words: Protein kinase C inhibition assay, PKC isoenzyme ε. In kind it is biochemical. Conditions: read-out: IC50 PKC ε. How it is done:
as §1, §2, §3, §4

[3] abbreviates: Homo sapiens, MCF7, MCF-7, 24 hrs.

T3 sequence (P05771 1-673 isoform P05771-2): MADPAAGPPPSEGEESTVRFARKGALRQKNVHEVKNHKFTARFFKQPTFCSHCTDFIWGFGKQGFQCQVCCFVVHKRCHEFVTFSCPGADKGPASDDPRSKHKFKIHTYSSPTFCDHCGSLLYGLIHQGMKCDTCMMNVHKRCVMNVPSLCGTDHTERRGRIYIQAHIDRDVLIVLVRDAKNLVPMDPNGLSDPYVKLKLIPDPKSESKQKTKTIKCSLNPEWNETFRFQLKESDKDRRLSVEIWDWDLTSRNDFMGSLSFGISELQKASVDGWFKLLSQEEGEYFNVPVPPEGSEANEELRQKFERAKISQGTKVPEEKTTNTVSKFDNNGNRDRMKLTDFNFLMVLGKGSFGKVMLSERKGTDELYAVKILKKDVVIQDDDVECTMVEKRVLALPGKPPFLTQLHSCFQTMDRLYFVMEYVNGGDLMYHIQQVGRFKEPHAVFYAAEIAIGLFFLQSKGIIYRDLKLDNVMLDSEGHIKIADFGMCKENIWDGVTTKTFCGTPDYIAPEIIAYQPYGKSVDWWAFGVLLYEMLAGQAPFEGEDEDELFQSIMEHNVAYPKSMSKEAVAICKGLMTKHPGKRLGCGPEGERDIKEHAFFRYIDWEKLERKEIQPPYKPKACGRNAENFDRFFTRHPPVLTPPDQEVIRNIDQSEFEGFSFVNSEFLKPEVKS
T1 sequence (Q05655 whole entry): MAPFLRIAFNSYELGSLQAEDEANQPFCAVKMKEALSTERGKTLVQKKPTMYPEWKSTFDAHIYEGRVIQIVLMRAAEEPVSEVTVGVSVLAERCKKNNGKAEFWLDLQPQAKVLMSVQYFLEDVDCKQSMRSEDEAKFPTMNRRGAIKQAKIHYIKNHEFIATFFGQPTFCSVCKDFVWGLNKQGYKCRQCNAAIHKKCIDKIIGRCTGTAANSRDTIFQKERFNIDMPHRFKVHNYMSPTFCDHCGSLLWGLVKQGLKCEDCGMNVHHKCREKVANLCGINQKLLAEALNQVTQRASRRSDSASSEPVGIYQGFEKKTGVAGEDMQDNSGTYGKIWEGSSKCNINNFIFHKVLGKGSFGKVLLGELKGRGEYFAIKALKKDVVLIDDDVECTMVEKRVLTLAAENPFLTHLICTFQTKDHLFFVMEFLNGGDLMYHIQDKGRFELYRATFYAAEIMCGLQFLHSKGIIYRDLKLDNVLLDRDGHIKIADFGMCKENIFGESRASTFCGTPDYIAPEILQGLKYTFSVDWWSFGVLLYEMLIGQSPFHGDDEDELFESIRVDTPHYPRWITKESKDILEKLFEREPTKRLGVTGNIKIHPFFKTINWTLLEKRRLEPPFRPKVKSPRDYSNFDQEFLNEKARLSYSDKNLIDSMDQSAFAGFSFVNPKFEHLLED

Broadly, the IC50 is the point on the concentration scale where inhibition reaches its midpoint. For `COc1cc(NS(=O)(=O)c2ccc(N=C3C=C(Nc4ccc(S(=O)(=O)Nc5cc(OC)nc(OC)n5)cc4)C(=O)c4ccccc43)cc2)nc(OC)n1` [Compound 6g], the IC50 at PKC isoenzyme δ is more than 150 µM; in experiment [1] (MCF-7, 24 hrs), 21 µM; at PKC isoenzyme α, 61 µM; on PKC isoenzyme βII it was 33 µM; in experiment [2], 1.4 µM.

In the case of `O=C1C(Nc2ccc(S(=O)(=O)Nc3ccccn3)cc2)=CC(=Nc2ccc(S(=O)(=O)Nc3ccccn3)cc2)c2ccccc21` [Compound 3i], the 50% inhibitory concentration (IC50) on PKC isoenzyme δ is 37 µM; in experiment [1] (setting [3]), 13.8 µM; on PKC isoenzyme α, 23 µM; on PKC isoenzyme βII, 26 µM; in experiment [2], 0.61 µM; at PKC isoenzyme ε, more than 150 µM.

Take `COc1ccc(NS(=O)(=O)c2ccc(N=C3C=C(Nc4ccc(S(=O)(=O)Nc5ccc(OC)nn5)cc4)C(=O)c4ccccc43)cc2)nn1` [Compound 6j]: the IC50 at PKC isoenzyme δ amounted to 113 µM; in experiment [1] (MCF-7, 24 hrs) it was 10.9 µM; at PKC isoenzyme α, 106 µM; at PKC isoenzyme βII, 47 µM; in experiment [2] it was 0.82 µM.

`Cc1cc(NS(=O)(=O)c2ccc(N=C3C=C(Nc4ccc(S(=O)(=O)Nc5cc(C)nc(C)n5)cc4)C(=O)c4ccccc43)cc2)nc(C)n1` [Compound 6d]: the IC50 on PKC isoenzyme δ is 47 µM; in experiment [1] (MCF-7, 24 hrs), 17.9 µM; at PKC isoenzyme α, 41 µM; on PKC isoenzyme βII it was 39 µM; in experiment [2], 2.5 µM.

Take `Cc1ccnc(NS(=O)(=O)c2ccc(N=C3C=C(Nc4ccc(S(=O)(=O)Nc5nccc(C)n5)cc4)C(=O)c4ccccc43)cc2)n1` [Compound 6f]: the 50% inhibitory concentration (IC50) at PKC isoenzyme δ came to 43 µM; in experiment [1] (MCF-7, 24 hrs), 17.7 µM; at PKC isoenzyme α, 24 µM; in experiment [2], 1.4 µM.

`Cc1cc(NS(=O)(=O)c2ccc(N=C3C=C(Nc4ccc(S(=O)(=O)Nc5cc(C)on5)cc4)C(=O)c4ccccc43)cc2)no1` [Compound 6a]: the IC50 amounted to 34 µM at PKC isoenzyme δ, 24 µM at PKC isoenzyme βII, 1.2 µM in experiment [2] and 145 µM on PKC isoenzyme ε.

`Cc1nnc(NS(=O)(=O)c2ccc(N=C3C=C(Nc4ccc(S(=O)(=O)Nc5nnc(C)s5)cc4)C(=O)c4ccccc43)cc2)s1` [Compound 3e]: the IC50 on PKC isoenzyme δ is 43 µM; at PKC isoenzyme α it was 17 µM; at PKC isoenzyme βII it was 14 µM; in experiment [2] (Homo sapiens), 8.7 µM; at PKC isoenzyme ε, more than 150 µM.

Turning to `O=C1C(Nc2ccc(S(=O)(=O)Nc3ccc(Cl)nn3)cc2)=CC(=Nc2ccc(S(=O)(=O)Nc3ccc(Cl)nn3)cc2)c2ccccc21` [Compound 3l], the IC50 on PKC isoenzyme δ is 78 µM; on PKC isoenzyme α, 27 µM; on PKC isoenzyme βII it was 24 µM; in experiment [2] (Homo sapiens) it was 4.3 µM; on PKC isoenzyme ε, more than 150 µM.

With `Cc1nnc(NS(=O)(=O)c2ccc(N=C3C=C(Nc4ccc(S(=O)(=O)Nc5nnc(C)s5)cc4)C(=O)c4ccccc43)cc2)s1` [Compound 6e], the 50% inhibitory concentration (IC50) on PKC isoenzyme δ was 35 µM; at PKC isoenzyme α, 109 µM; on PKC isoenzyme βII, 24 µM; in experiment [2], 8.6 µM.

Take `O=C1C(Nc2ccc(S(=O)(=O)NCc3ccccn3)cc2)=CC(=Nc2ccc(S(=O)(=O)NCc3ccccn3)cc2)c2ccccc21` [Compound 6n]: the IC50 in experiment [1] (MCF-7, 24 hrs) was 0.75 µM; on PKC isoenzyme α it was 134 µM; on PKC isoenzyme βII it was more than 150 µM; in experiment [2] it was 0.5 µM; on PKC isoenzyme ε, 149 µM.

Turning to `O=C1C(Nc2ccc(S(=O)(=O)Nc3ccccn3)cc2)=CC(=Nc2ccc(S(=O)(=O)Nc3ccccn3)cc2)c2ccccc21` [Compound 6i], the IC50 was determined as 120 µM on PKC isoenzyme δ; 20 µM in experiment [1] (MCF-7, 24 hrs); 14 µM at PKC isoenzyme α; 47 µM at PKC isoenzyme βII; 7.3 µM in experiment [2].

As to `O=C1C(Nc2ccc(S(=O)(=O)Nc3ccc(Cl)nn3)cc2)=CC(=Nc2ccc(S(=O)(=O)Nc3ccc(Cl)nn3)cc2)c2ccccc21` [Compound 6l], the IC50 at PKC isoenzyme δ was 50 µM; on PKC isoenzyme α, 44 µM; on PKC isoenzyme βII, 29 µM; in experiment [2] it was 3.3 µM; on PKC isoenzyme ε it was more than 150 µM.

Turning to `COc1cnc(NS(=O)(=O)c2ccc(N=C3C=C(Nc4ccc(S(=O)(=O)Nc5ncc(OC)cn5)cc4)C(=O)c4ccccc43)cc2)nc1` [Compound 6h], the IC50 is more than 150 µM on PKC isoenzyme δ; 14.9 µM in experiment [1] (MCF-7, 24 hrs); 108 µM on PKC isoenzyme α; 97 µM at PKC isoenzyme βII; 1.2 µM in experiment [2].

Turning to `COc1cc(NS(=O)(=O)c2ccc(N=C3C=C(Nc4ccc(S(=O)(=O)Nc5cc(OC)cc(OC)c5)cc4)C(=O)c4ccccc43)cc2)cc(OC)c1` [Compound 6af], the IC50 in experiment [1] (MCF-7, 24 hrs) was 1.2 µM; at PKC isoenzyme α, 113 µM; at PKC isoenzyme βII, more than 150 µM; on PKC isoenzyme ε it was more than 150 µM.

On to `Cc1cc(C)nc(NS(=O)(=O)c2cc(N=C3C=C(Nc4ccc(C)c(S(=O)(=O)Nc5cc(C)cc(C)n5)c4)C(=O)c4ccccc43)ccc2C)c1` [Compound 3ag], for which the IC50 amounted to 30 µM at PKC isoenzyme δ; 2.4 µM in experiment [1] (setting [3]); 7 µM at PKC isoenzyme α; 17 µM at PKC isoenzyme βII; 8 µM at PKC isoenzyme ε.

For `Cc1noc(NS(=O)(=O)c2ccc(N=C3C=C(Nc4ccc(S(=O)(=O)Nc5onc(C)c5C)cc4)C(=O)c4ccccc43)cc2)c1C` [Compound 3b], the IC50 at PKC isoenzyme δ was 31 µM; on PKC isoenzyme α, 30 µM; on PKC isoenzyme βII it was 29 µM; in experiment [2] (Homo sapiens) it was 11.6 µM; at PKC isoenzyme ε, 143 µM.

These data come from patent US5292737A, “N,N'-bis(sulfonamido)-2-amino-4-iminonaphthalen-1-ones and N,N'-bis(amido)-2-amino-4-iminonaphthalen-1-ones” (Sphinx Pharmaceuticals Corporation, priority 1992, dated 1994).
